Reference: ChEMBL document CHEMBL1136566, “Synthesis, opioid receptor binding, and functional activity of 5'-substituted 17-cyclopropylmethylpyrido[2',3':6,7]morphinans” (Bioorg Med Chem Lett, 2003)

molecular target: Delta-type opioid receptor (Mus musculus) (UniProt P32300); test: Antagonist potency against delta opioid receptor was measured in mouse vas-deferens using DPDPE; type: functional
Sequence (P32300 whole entry): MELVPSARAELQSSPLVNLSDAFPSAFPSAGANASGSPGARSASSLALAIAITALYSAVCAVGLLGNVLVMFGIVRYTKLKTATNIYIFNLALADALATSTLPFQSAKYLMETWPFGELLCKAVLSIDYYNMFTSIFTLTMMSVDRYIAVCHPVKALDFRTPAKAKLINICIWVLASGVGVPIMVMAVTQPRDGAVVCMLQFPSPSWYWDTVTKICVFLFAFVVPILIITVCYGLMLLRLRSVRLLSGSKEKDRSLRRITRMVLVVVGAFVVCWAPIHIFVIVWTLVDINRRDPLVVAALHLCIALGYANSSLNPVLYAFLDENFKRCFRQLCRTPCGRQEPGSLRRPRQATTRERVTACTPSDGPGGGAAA

SMILES	Ke [nM]
Oc1ccc2c3c1O[C@H]1c4ncc(CNc5ccccc5)cc4C[C@@]4(O)[C@@H](C2)N(CC2CC2)CC[C@]314	6.5
Oc1ccc2c3c1O[C@H]1c4ncc(NCc5ccccc5)cc4C[C@@]4(O)[C@@H](C2)N(CC2CC2)CC[C@]314	6.5
Oc1ccc2c3c1O[C@H]1c4[nH]c5ccccc5c4C[C@@]4(O)[C@@H](C2)N(CC2CC2)CC[C@]314 [NALTRINDOLE]	0.53
Oc1ccc2c3c1O[C@H]1c4ncc(-n5cccc5)cc4C[C@@]4(O)[C@@H](C2)N(CC2CC2)CC[C@]314	6.6
Oc1ccc2c3c1O[C@H]1c4ncc(Br)cc4C[C@@]4(O)[C@@H](C2)N(CC2CC2)CC[C@]314	3.6
O=[N+]([O-])c1cnc2c(c1)C[C@@]1(O)[C@H]3Cc4ccc(O)c5c4[C@@]1(CCN3CC1CC1)[C@H]2O5	53
Nc1cnc2c(c1)C[C@@]1(O)[C@H]3Cc4ccc(O)c5c4[C@@]1(CCN3CC1CC1)[C@H]2O5	25
N=C(N)Nc1cnc2c(c1)C[C@@]1(O)[C@H]3Cc4ccc(O)c5c4[C@@]1(CCN3CC1CC1)[C@H]2O5	170
N#Cc1cnc2c(c1)C[C@@]1(O)[C@H]3Cc4ccc(O)c5c4[C@@]1(CCN3CC1CC1)[C@H]2O5	44

molecular target: T1, Kappa-type opioid receptor (Cavia porcellus, UniProt P41144); test: Binding affinity for kappa opioid receptor was measured using [3H]U-69593
T1 sequence (P41144 whole entry): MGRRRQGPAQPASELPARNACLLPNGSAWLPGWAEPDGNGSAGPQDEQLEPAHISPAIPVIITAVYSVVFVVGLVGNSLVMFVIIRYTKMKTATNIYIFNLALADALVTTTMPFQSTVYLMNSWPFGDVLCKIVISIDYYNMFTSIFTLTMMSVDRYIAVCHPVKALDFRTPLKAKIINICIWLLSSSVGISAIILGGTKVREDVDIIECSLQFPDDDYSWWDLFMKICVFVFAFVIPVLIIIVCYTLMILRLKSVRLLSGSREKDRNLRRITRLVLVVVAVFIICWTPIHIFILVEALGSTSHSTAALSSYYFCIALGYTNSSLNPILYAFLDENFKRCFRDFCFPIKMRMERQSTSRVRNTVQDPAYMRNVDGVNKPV

SMILES	Ki [nM]
Oc1ccc2c3c1O[C@H]1c4ncc(CNc5ccccc5)cc4C[C@@]4(O)[C@@H](C2)N(CC2CC2)CC[C@]314	19
Oc1ccc2c3c1O[C@H]1c4ncc(NCc5ccccc5)cc4C[C@@]4(O)[C@@H](C2)N(CC2CC2)CC[C@]314	6.7
Oc1ccc2c3c1O[C@H]1c4ncc(-n5cccc5)cc4C[C@@]4(O)[C@@H](C2)N(CC2CC2)CC[C@]314	12.2
Oc1ccc2c3c1O[C@H]1c4ncc(Br)cc4C[C@@]4(O)[C@@H](C2)N(CC2CC2)CC[C@]314	55.7
O=[N+]([O-])c1cnc2c(c1)C[C@@]1(O)[C@H]3Cc4ccc(O)c5c4[C@@]1(CCN3CC1CC1)[C@H]2O5	92
N=C(N)Nc1cnc2c(c1)C[C@@]1(O)[C@H]3Cc4ccc(O)c5c4[C@@]1(CCN3CC1CC1)[C@H]2O5	0.7
N#Cc1cnc2c(c1)C[C@@]1(O)[C@H]3Cc4ccc(O)c5c4[C@@]1(CCN3CC1CC1)[C@H]2O5	33.9

molecular target: T1, Kappa-type opioid receptor; test: Antagonist activity on agonist stimulated [35S]GTP-gamma-S, binding in guinea pig caudate membranes (10 uM U69,593 as the agonist ligand for kappa-receptor); type: functional, cell membranes

SMILES	Ki [nM]
Oc1ccc2c3c1O[C@H]1c4[nH]c5ccccc5c4C[C@@]4(O)[C@@H](C2)N(CC2CC2)CC[C@]314 [NALTRINDOLE]	6
Oc1ccc2c3c1O[C@H]1c4ncc(-n5cccc5)cc4C[C@@]4(O)[C@@H](C2)N(CC2CC2)CC[C@]314	8.8
Oc1ccc2c3c1O[C@H]1c4[nH]c5c(c4C[C@@]4(O)[C@@H](C2)N(CC2CC2)CC[C@]314)C[C@@]1(O)[C@H]2Cc3ccc(O)c4c3[C@@]1(CCN2CC1CC1)[C@H]5O4 [NORBINALTORPHIMINE]	0.12
N=C(N)Nc1cnc2c(c1)C[C@@]1(O)[C@H]3Cc4ccc(O)c5c4[C@@]1(CCN3CC1CC1)[C@H]2O5	1

molecular target: T2, Mu-type opioid receptor (Cavia porcellus, UniProt P97266); test: Antagonist activity on agonist stimulated [35S]GTP-gamma-S, binding in guinea pig caudate membranes (10 uM DAMGO as the agonist ligand for Mu-receptor); type: functional, cell membranes
T2 sequence (P97266 whole entry): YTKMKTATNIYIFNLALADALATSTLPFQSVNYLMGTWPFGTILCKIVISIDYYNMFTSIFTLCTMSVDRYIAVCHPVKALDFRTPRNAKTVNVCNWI

SMILES	Ki [nM]
Oc1ccc2c3c1O[C@H]1c4ncc(-n5cccc5)cc4C[C@@]4(O)[C@@H](C2)N(CC2CC2)CC[C@]314	4.2
N=C(N)Nc1cnc2c(c1)C[C@@]1(O)[C@H]3Cc4ccc(O)c5c4[C@@]1(CCN3CC1CC1)[C@H]2O5	6.1

molecular target: T2, Mu-type opioid receptor; test: Antagonist activity on agonist stimulated [35S]GTP-gamma-S, binding in guinea pig caudate membranes (10 uM DAMGO as the agonist ligand for mu-receptor); type: functional, cell membranes

SMILES	Ki [nM]
Oc1ccc2c3c1O[C@H]1c4[nH]c5ccccc5c4C[C@@]4(O)[C@@H](C2)N(CC2CC2)CC[C@]314 [NALTRINDOLE]	1.8
Oc1ccc2c3c1O[C@H]1c4[nH]c5c(c4C[C@@]4(O)[C@@H](C2)N(CC2CC2)CC[C@]314)C[C@@]1(O)[C@H]2Cc3ccc(O)c4c3[C@@]1(CCN2CC1CC1)[C@H]5O4 [NORBINALTORPHIMINE]	14.8

molecular target: Mu-type opioid receptor (Cavia porcellus) (UniProt P97266); test: Antagonist potency against mu opioid receptor was measured in guinea-pig ileal longitudinal muscle using PL-017; type: functional
Sequence (P97266 whole entry): as above

SMILES	Ke [nM]
Oc1ccc2c3c1O[C@H]1c4ncc(CNc5ccccc5)cc4C[C@@]4(O)[C@@H](C2)N(CC2CC2)CC[C@]314	5.9
Oc1ccc2c3c1O[C@H]1c4ncc(NCc5ccccc5)cc4C[C@@]4(O)[C@@H](C2)N(CC2CC2)CC[C@]314	5.9
Oc1ccc2c3c1O[C@H]1c4ncc(-n5cccc5)cc4C[C@@]4(O)[C@@H](C2)N(CC2CC2)CC[C@]314	62
Oc1ccc2c3c1O[C@H]1c4ncc(Br)cc4C[C@@]4(O)[C@@H](C2)N(CC2CC2)CC[C@]314	36
O=[N+]([O-])c1cnc2c(c1)C[C@@]1(O)[C@H]3Cc4ccc(O)c5c4[C@@]1(CCN3CC1CC1)[C@H]2O5	200
Nc1cnc2c(c1)C[C@@]1(O)[C@H]3Cc4ccc(O)c5c4[C@@]1(CCN3CC1CC1)[C@H]2O5	48
N=C(N)Nc1cnc2c(c1)C[C@@]1(O)[C@H]3Cc4ccc(O)c5c4[C@@]1(CCN3CC1CC1)[C@H]2O5	500
N#Cc1cnc2c(c1)C[C@@]1(O)[C@H]3Cc4ccc(O)c5c4[C@@]1(CCN3CC1CC1)[C@H]2O5	> 1000

molecular target: Mu-type opioid receptor (Rattus norvegicus, UniProt P33535); test: Binding affinity to mu opioid receptor was measured using [3H]DAMGO
Sequence (P33535 whole entry): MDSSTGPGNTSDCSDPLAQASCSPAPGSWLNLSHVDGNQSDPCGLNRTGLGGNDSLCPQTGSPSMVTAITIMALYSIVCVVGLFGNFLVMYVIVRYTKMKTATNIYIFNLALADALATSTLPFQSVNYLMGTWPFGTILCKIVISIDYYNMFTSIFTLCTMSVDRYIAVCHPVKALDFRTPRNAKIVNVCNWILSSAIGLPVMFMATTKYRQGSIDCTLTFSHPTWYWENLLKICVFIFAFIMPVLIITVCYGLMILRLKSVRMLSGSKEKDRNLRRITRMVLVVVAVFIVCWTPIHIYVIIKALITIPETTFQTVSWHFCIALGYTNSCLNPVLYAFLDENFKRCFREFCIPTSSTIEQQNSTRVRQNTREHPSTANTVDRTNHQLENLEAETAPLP

SMILES	Ki [nM]
Oc1ccc2c3c1O[C@H]1c4ncc(CNc5ccccc5)cc4C[C@@]4(O)[C@@H](C2)N(CC2CC2)CC[C@]314	6
Oc1ccc2c3c1O[C@H]1c4ncc(NCc5ccccc5)cc4C[C@@]4(O)[C@@H](C2)N(CC2CC2)CC[C@]314	15
Oc1ccc2c3c1O[C@H]1c4ncc(-n5cccc5)cc4C[C@@]4(O)[C@@H](C2)N(CC2CC2)CC[C@]314	19
Oc1ccc2c3c1O[C@H]1c4ncc(Br)cc4C[C@@]4(O)[C@@H](C2)N(CC2CC2)CC[C@]314	15.5
O=[N+]([O-])c1cnc2c(c1)C[C@@]1(O)[C@H]3Cc4ccc(O)c5c4[C@@]1(CCN3CC1CC1)[C@H]2O5	17.5
N=C(N)Nc1cnc2c(c1)C[C@@]1(O)[C@H]3Cc4ccc(O)c5c4[C@@]1(CCN3CC1CC1)[C@H]2O5	26
N#Cc1cnc2c(c1)C[C@@]1(O)[C@H]3Cc4ccc(O)c5c4[C@@]1(CCN3CC1CC1)[C@H]2O5	16

molecular target: Delta-type opioid receptor (Rattus norvegicus, UniProt P33533); test: Binding affinity to delta opioid receptor was measured using [3H]DADLE
Sequence (P33533 whole entry): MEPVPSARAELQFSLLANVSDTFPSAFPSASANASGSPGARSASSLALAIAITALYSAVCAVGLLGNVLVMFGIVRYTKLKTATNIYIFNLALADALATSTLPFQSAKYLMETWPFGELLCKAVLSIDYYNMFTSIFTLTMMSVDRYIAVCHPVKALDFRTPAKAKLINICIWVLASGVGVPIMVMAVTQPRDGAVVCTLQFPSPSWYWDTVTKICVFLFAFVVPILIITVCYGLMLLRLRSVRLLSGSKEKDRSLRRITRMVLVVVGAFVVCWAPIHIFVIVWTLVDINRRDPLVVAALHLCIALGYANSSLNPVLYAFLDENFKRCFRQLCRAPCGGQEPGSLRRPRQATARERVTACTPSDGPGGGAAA

SMILES	Ki [nM]
Oc1ccc2c3c1O[C@H]1c4ncc(CNc5ccccc5)cc4C[C@@]4(O)[C@@H](C2)N(CC2CC2)CC[C@]314	1.8
Oc1ccc2c3c1O[C@H]1c4ncc(NCc5ccccc5)cc4C[C@@]4(O)[C@@H](C2)N(CC2CC2)CC[C@]314	1.3
Oc1ccc2c3c1O[C@H]1c4ncc(-n5cccc5)cc4C[C@@]4(O)[C@@H](C2)N(CC2CC2)CC[C@]314	0.64
Oc1ccc2c3c1O[C@H]1c4ncc(Br)cc4C[C@@]4(O)[C@@H](C2)N(CC2CC2)CC[C@]314	1.2
O=[N+]([O-])c1cnc2c(c1)C[C@@]1(O)[C@H]3Cc4ccc(O)c5c4[C@@]1(CCN3CC1CC1)[C@H]2O5	5.5
N=C(N)Nc1cnc2c(c1)C[C@@]1(O)[C@H]3Cc4ccc(O)c5c4[C@@]1(CCN3CC1CC1)[C@H]2O5	18.7
N#Cc1cnc2c(c1)C[C@@]1(O)[C@H]3Cc4ccc(O)c5c4[C@@]1(CCN3CC1CC1)[C@H]2O5	4.5

molecular target: Opioid receptors; mu & delta (Rattus norvegicus) (UniProt P33533+P33535); test: Selectivity ratio was measured between mu and delta opioid receptor; type: protein assay
Sequence (P33533 whole entry, looked up): as the sequence (P33533 whole entry) above
Sequence (P33535 whole entry, looked up): as the sequence (P33535 whole entry) above

SMILES	Selectivity ratio
Oc1ccc2c3c1O[C@H]1c4ncc(CNc5ccccc5)cc4C[C@@]4(O)[C@@H](C2)N(CC2CC2)CC[C@]314	3.3
Oc1ccc2c3c1O[C@H]1c4ncc(NCc5ccccc5)cc4C[C@@]4(O)[C@@H](C2)N(CC2CC2)CC[C@]314	11.5
Oc1ccc2c3c1O[C@H]1c4ncc(-n5cccc5)cc4C[C@@]4(O)[C@@H](C2)N(CC2CC2)CC[C@]314	30
Oc1ccc2c3c1O[C@H]1c4ncccc4C[C@@]4(O)[C@@H](C2)N(CC2CC2)CC[C@]314	1.9
Oc1ccc2c3c1O[C@H]1c4ncc(Br)cc4C[C@@]4(O)[C@@H](C2)N(CC2CC2)CC[C@]314	12.9
O=[N+]([O-])c1cnc2c(c1)C[C@@]1(O)[C@H]3Cc4ccc(O)c5c4[C@@]1(CCN3CC1CC1)[C@H]2O5	3.2
Nc1cnc2c(c1)C[C@@]1(O)[C@H]3Cc4ccc(O)c5c4[C@@]1(CCN3CC1CC1)[C@H]2O5	1.6
N=C(N)Nc1cnc2c(c1)C[C@@]1(O)[C@H]3Cc4ccc(O)c5c4[C@@]1(CCN3CC1CC1)[C@H]2O5	1.4
N#Cc1cnc2c(c1)C[C@@]1(O)[C@H]3Cc4ccc(O)c5c4[C@@]1(CCN3CC1CC1)[C@H]2O5	3.6

test system: not listed separately; test: Selectivity ratio was measured between kappa and delta opioid receptor

SMILES	Selectivity ratio
Oc1ccc2c3c1O[C@H]1c4ncc(CNc5ccccc5)cc4C[C@@]4(O)[C@@H](C2)N(CC2CC2)CC[C@]314	10.6
Oc1ccc2c3c1O[C@H]1c4ncc(NCc5ccccc5)cc4C[C@@]4(O)[C@@H](C2)N(CC2CC2)CC[C@]314	5.2
Oc1ccc2c3c1O[C@H]1c4ncc(-n5cccc5)cc4C[C@@]4(O)[C@@H](C2)N(CC2CC2)CC[C@]314	19
Oc1ccc2c3c1O[C@H]1c4ncccc4C[C@@]4(O)[C@@H](C2)N(CC2CC2)CC[C@]314	11
Oc1ccc2c3c1O[C@H]1c4ncc(Br)cc4C[C@@]4(O)[C@@H](C2)N(CC2CC2)CC[C@]314	46
O=[N+]([O-])c1cnc2c(c1)C[C@@]1(O)[C@H]3Cc4ccc(O)c5c4[C@@]1(CCN3CC1CC1)[C@H]2O5	17
Nc1cnc2c(c1)C[C@@]1(O)[C@H]3Cc4ccc(O)c5c4[C@@]1(CCN3CC1CC1)[C@H]2O5	1.5
N=C(N)Nc1cnc2c(c1)C[C@@]1(O)[C@H]3Cc4ccc(O)c5c4[C@@]1(CCN3CC1CC1)[C@H]2O5	0.037
N#Cc1cnc2c(c1)C[C@@]1(O)[C@H]3Cc4ccc(O)c5c4[C@@]1(CCN3CC1CC1)[C@H]2O5	7.5

test system: not listed separately; test: Selectivity ratio between delta and mu opioid receptor in corresponding mouse vas-deferens and guinea-pig ileal longitudinal muscle; type: functional

SMILES	Selectivity ratio
Oc1ccc2c3c1O[C@H]1c4ncc(CNc5ccccc5)cc4C[C@@]4(O)[C@@H](C2)N(CC2CC2)CC[C@]314	0.9
Oc1ccc2c3c1O[C@H]1c4ncc(NCc5ccccc5)cc4C[C@@]4(O)[C@@H](C2)N(CC2CC2)CC[C@]314	0.9
CCOC(=O)c1cnc2c(c1)C[C@@]1(O)[C@H]3Cc4ccc(O)c5c4[C@@]1(CCN3CC1CC1)[C@H]2O5	4.4
Oc1ccc2c3c1O[C@H]1c4ncccc4C[C@@]4(O)[C@@H](C2)N(CC2CC2)CC[C@]314	5.1
Oc1ccc2c3c1O[C@H]1c4ncc(Br)cc4C[C@@]4(O)[C@@H](C2)N(CC2CC2)CC[C@]314	10
O=[N+]([O-])c1cnc2c(c1)C[C@@]1(O)[C@H]3Cc4ccc(O)c5c4[C@@]1(CCN3CC1CC1)[C@H]2O5	3.8
Nc1cnc2c(c1)C[C@@]1(O)[C@H]3Cc4ccc(O)c5c4[C@@]1(CCN3CC1CC1)[C@H]2O5	1.9
N#Cc1cnc2c(c1)C[C@@]1(O)[C@H]3Cc4ccc(O)c5c4[C@@]1(CCN3CC1CC1)[C@H]2O5	>22
